Test results taken from ChEMBL document CHEMBL5523757, “Discovery, Synthesis, and Activity Evaluation of Novel Five-Membered Sulfur-Containing Heterocyclic Nucleosides as Potential Anticancer Agents In Vitro and In Vivo” (J Med Chem, 2024).

Key:
Format in all cases: functional, cell-based
HeLa = assay: Antiproliferative activity against human HeLa cells assessed as inhibition of cell growth incubated for 48 hrs by CCK-8 assay
MCF7 = assay: Antiproliferative activity against human MCF7 cells assessed as inhibition of cell growth incubated for 48 hrs by CCK-8 assay
HCT-116 = assay: Antiproliferative activity against human HCT-116 cells assessed as inhibition of cell growth incubated for 48 hrs by CCK-8 assay
HepG2 = assay: Antiproliferative activity against human HepG2 cells assessed as inhibition of cell growth incubated for 48 hrs by CCK-8 assay
PANC-1 = assay: Antiproliferative activity against human PANC-1 cells assessed as inhibition of cell growth incubated for 48 hrs by CCK-8 assay
A549 = assay: Antiproliferative activity against human A549 cells assessed as inhibition of cell growth incubated for 48 hrs by CCK-8 assay

Structure (SMILES)	IC50 (HeLa; Homo sapiens, HeLa, 48 h) [µM]	IC50 (MCF7; Homo sapiens, MCF7, 48 h) [µM]	IC50 (HCT-116; Homo sapiens, HCT-116, 48 h) [µM]	also measured
CCOC(=O)C[C@@H]1CSC[C@]1(C(=O)OCC)n1cnc2c(OC)ncnc21 (racemic)	> 50	> 50	> 50	–
CCOC(=O)C[C@@H]1CSC[C@]1(C(=O)OCC)n1cnc2c(Cl)ncnc21 (racemic)	12.5	43.5	19.4	–
CCOC(=O)C[C@@H]1CSC[C@]1(C(=O)OCC)n1cnc2cnc(Cl)nc21 (racemic)	> 50	> 50	> 50	–
CCOC(=O)C[C@@H]1CSC[C@]1(C(=O)OCC)n1cnc2c(N3CCOCC3)ncnc21 (racemic)	> 50	> 50	> 50	–
CCOC(=O)C[C@@H]1CSC[C@]1(C(=O)OCC)n1cnc2c(Cl)nc(F)nc21 (racemic)	14.5	27.9	15.9	–
CCOC(=O)C[C@@H]1CSC[C@]1(C(=O)OC(C)C)n1cnc2c(Cl)ncnc21 (racemic)	13.6	44.8	38.2	–
CCOC(=O)C[C@@H]1CSC[C@]1(C(=O)OCC)n1cnc2c(Br)ncnc21 (racemic)	49.6	> 50	> 50	–
CCOC(=O)C[C@H]1CSC[C@]1(C(=O)OC(C)C)n1cnc2c(Cl)ncnc21 (racemic)	9.99	13	14.7	–
CCOC(=O)C[C@@H]1CSC[C@]1(C(=O)OCC)n1cnc2c(-c3ccccc3)ncnc21 (racemic)	42.9	19.4	25.1	–
CCOC(=O)C[C@H]1CSC[C@]1(C(=O)OCC)n1cnc2c(OC)ncnc21 (racemic)	> 50	> 50	> 50	–
CCOC(=O)C[C@H]1CSC[C@]1(C(=O)OCC)n1cnc2c(N(C)C)ncnc21 (racemic)	> 50	> 50	> 50	–
CCOC(=O)C[C@H]1CSC[C@]1(C(=O)OCC)n1cnc2c(Cl)ncnc21 (racemic)	6.81	12	15.5	–
CCOC(=O)C[C@@H]1CSC[C@]1(C(=O)OCC)n1cnc2c(N3CCCC3)nc(Cl)nc21 (racemic)	38.3	> 50	34	–
O=c1[nH]cc(F)c(=O)[nH]1 [FLUOROURACIL]	9.75	11.6	8.75	IC50 (HepG2; Homo sapiens, HepG2, 48 h): 12.9 µM; IC50 (PANC-1; Homo sapiens, PANC-1, 48 h): 44.1 µM
CCOC(=O)C[C@H]1CSC[C@]1(C(=O)OCC)n1cnc2c(-c3ccccc3)ncnc21 (racemic)	26.2	> 50	17.3	–
CCOC(=O)C[C@H]1CSC[C@]1(C(=O)OCC)n1cnc2cnc(Cl)nc21 (racemic)	> 50	> 50	> 50	–
CCOC(=O)C[C@@H]1CSC[C@@]1(C(=O)OCC)n1cnc2c(Cl)nc(Cl)nc21	2.78	4.54	3.69	IC50 (A549; Homo sapiens, A549, 48 h): 41.4 µM; IC50 (HepG2; Homo sapiens, HepG2, 48 h): 23.8 µM; IC50 (PANC-1; Homo sapiens, PANC-1, 48 h): 11.1 µM
CCOC(=O)C[C@H]1CSC[C@]1(C(=O)OCC)n1cnc2c(OCc3ccccc3)ncnc21 (racemic)	13.7	12.7	13.2	–
CCOC(=O)C[C@H]1CSC[C@]1(C(=O)OC)n1cnc2c(Cl)ncnc21 (racemic)	11.6	> 50	19.2	–
CCOC(=O)C[C@H]1CSC[C@]1(C(=O)OCC)n1cnc2c(N3CCCC3)ncnc21 (racemic)	> 50	> 50	> 50	–
CCOC(=O)C[C@@H]1CSC[C@]1(C(=O)OCC)n1cnc2c(N3CCCCC3)ncnc21 (racemic)	> 50	42.2	32	–
CCOC(=O)C[C@H]1CSC[C@]1(C(=O)OCC)n1cnc2c(N3CCCCC3)nc(Cl)nc21 (racemic)	22.4	> 50	22.6	–

Structure (SMILES)	IC50 (HeLa; Homo sapiens, HeLa, 48 h) [µM]	IC50 (MCF7; Homo sapiens, MCF7, 48 h) [µM]	IC50 (HCT-116; Homo sapiens, HCT-116, 48 h) [µM]	also measured
CCCSc1ncnc2c1ncn2[C@@]1(C(=O)OCC)CSC[C@H]1CC(=O)OCC (racemic)	> 50	23.5	38.5	–
CCOC(=O)C[C@H]1CSC[C@]1(C(=O)OCC)n1cnc2c(Br)ncnc21 (racemic)	14.4	19.4	30.1	–
CCOC(=O)C[C@@H]1CSC[C@]1(C(=O)OCC)n1cnc2c(N(CC)CC)ncnc21 (racemic)	> 50	> 50	41.5	–
CCOC(=O)C[C@@H]1CSC[C@]1(C(=O)OCC)n1cnc2c(N(C)C)ncnc21 (racemic)	> 50	> 50	> 50	–
CCOC(=O)C[C@@H]1CSC[C@]1(C(=O)OCC)n1cnc2c(OCC)ncnc21 (racemic)	> 50	> 50	19.8	–
CCOC(=O)C[C@H]1CSC[C@]1(C(=O)OCC)n1cnc2c(Cl)nc(F)nc21 (racemic)	8.8	22.9	11	–
CCCSc1ncnc2c1ncn2[C@@]1(C(=O)OCC)CSC[C@@H]1CC(=O)OCC (racemic)	37.2	30.9	25.9	–
CCOC(=O)C[C@@H]1CSC[C@]1(C(=O)OCC)n1cnc2c(OCc3ccccc3)ncnc21 (racemic)	> 50	> 50	> 50	–
CCOC(=O)C[C@H]1CSC[C@]1(C(=O)OCC)n1cnc2c(N3CCCC3)nc(Cl)nc21 (racemic)	> 50	38.3	46.6	–
CCOC(=O)C[C@H]1CSC[C@]1(C(=O)OCC)n1cnc2c(Cl)nc(Cl)nc21	–	–	–	IC50 (A549; a549): > 50 µM; IC50 (HepG2; hepg2): > 50 µM; IC50 (HeLa; hela): 7.43 µM; IC50 (PANC-1; panc-1): 27.5 µM; IC50 (MCF7; mcf7): 5.82 µM; IC50 (HCT-116; hct-116): 4.16 µM
CCOC(=O)C[C@H]1C[S+]([O-])C[C@]1(C(=O)OCC)n1cnc2c(Cl)nc(Cl)nc21 (stereo not given in full)	10.5	25.9	17.1	–
CCOC(=O)C[C@H]1CS(=O)(=O)C[C@]1(C(=O)OCC)n1cnc2c(Cl)nc(Cl)nc21	7.67	16.2	11.2	–
CCOC(=O)C[C@H]1CSC[C@]1(C(=O)OCC)n1cnc2c(N3CCOCC3)ncnc21 (racemic)	> 50	> 50	> 50	–
CCOC(=O)C[C@@H]1CSC[C@]1(C(=O)OCC)n1cnc2c(N3CCCCC3)nc(Cl)nc21 (racemic)	> 50	34	> 50	–
CCOC(=O)C[C@@H]1CSC[C@]1(C(=O)OCC)n1cnc2cncnc21 (racemic)	> 50	> 50	> 50	–
CCOC(=O)C[C@@H]1CSC[C@]1(C(=O)OCC)n1cnc2c(Cl)nc(Cl)nc21 (racemic)	9.5	4.06	6.89	–
CCOC(=O)C[C@@H]1CSC[C@]1(C(=O)OCC)n1cnc2c(N3CCCC3)ncnc21 (racemic)	> 50	> 50	> 50	–
CCOC(=O)C[C@H]1CSC[C@]1(C(=O)OCC)n1cnc2c(OCC)ncnc21 (racemic)	> 50	> 50	> 50	–
CCOC(=O)C[C@H]1CSC[C@]1(C(=O)OCC)n1cnc2c(N3CCCCC3)ncnc21 (racemic)	> 50	23.8	22.8	–
CCOC(=O)C[C@H]1CSC[C@]1(C(=O)OCC)n1cnc2c(N(CC)CC)ncnc21 (racemic)	> 50	> 50	> 50	–
CCOC(=O)C[C@H]1CSC[C@]1(C(=O)OCC)n1cnc2cncnc21 (racemic)	> 50	> 50	> 50	–
CCOC(=O)C[C@@H]1CSC[C@]1(C(=O)OC)n1cnc2c(Cl)ncnc21 (racemic)	12.5	> 50	31.8	–
